For data set [1], the system named is phospho-ERK in HCT-116 cells. Description: HCT-116 cell pERK assay (AlphaScreen SureFire). In kind it is cell-based. As to conditions: for IC50: Homo sapiens, HCT-116 cells, B-Raf wild type, K-Ras mutation, 4 hours, read-out: IC50 reduction of phospho-ERK signal. Here is the method: Examples of Formula I are tested against HCT-116 cells harboring wild type B-Raf and K-Ras mutation. The phospho-ERK activities are evaluated as described below.
HCT-116 cells (catalog #CCL-247) are obtained from the American Type Culture Collection (ATCC, Manassas, Va.). Briefly, cells are grown in McCoy's 5A supplemented with 10% characterized fetal bovine serum (Invitrogen, Carlsbad, Calif.), and 1% Penicillin/Streptomycin/L-Glutamine at 37 degrees Celsius, 5% CO2, and 95% humidity. Cells are allowed to expand until reaching 75-90% confluency at which point they are subcultured or harvested for assay use. HCT-116 cells suspended in complete media are added to 384-well tissue culture treated plates (3×10^5 cells/mL; 7,500 cells per well). The cells are incubated overnight at 37 degrees Celsius, 5% CO2, and 95% humidity. Next, test compound or DMSO diluted in complete media is added to the wells (0.25% final DMSO concentration). The plates are then incubated for 4 hours at 37 degrees Celsius, 5% CO2, and 95% humidity. Following compound incubation, the cells are lysed at 4° C. for 20 minutes with shaking Cell lysates are centrifuged and the supernatant is transferred to a new plate. An aliquot of each lysate is transferred to a white 384-well assay plate. Using the AlphaScreen SureFire pERK kit (Perkin-Elmer, Waltham, Mass.), an acceptor bead mixture is added to each well and incubated for 2 h at room temperature in the dark. A donor bead mixture is then added to each well and incubated for 2 h at room temperature in the dark. Plates are read using a Synergy2 plate reader (Biotek, Winooski, Vt.) in Plate Mode with Timing Control. Read: (F)1: excitation: 680/30 nm, emission: Plug. 2: Excitation: Plug, emission: 570/100 nm. Top mirror 635 nm. Data is analyzed using Prism software (Graphpad, San Diego, Calif.) to calculate IC50 values and Excel software (Microsoft, Redmond, Wash.) to calculate stimulation compared to control.
Background: Alpha assays give light when donor and acceptor beads are brought close together.

Data set [2] has as its system phospho-ERK in A375 (B-Raf V600E) xenograft. Description: A375 mouse xenograft pharmacodynamic assay (tumor pERK by ELISA). In kind it is in vivo, mice. Conditions: A-375, 20 mg/kg oral, 2 h post dose, vs vehicle, read-out: Measured pERK inhibition 2 h post dose. As for the experimental part:
To evaluate the in vivo pharmacodynamic (PD) effects of compounds of Formula I, an A375 (B-Raf V600E) xenograft model is employed. Briefly, 10×10^6 A375 tumor cells (ATCC) are prepared in a 1:1 matrigel mix (0.2 mL total volume) and implanted by subcutaneous injection in hind leg of nude female mice. A total of 4 mice each for each dosing group are employed. Treatment is initiated with oral administration (gavage) of test compound or vehicle (20% captisol, 25 mM phosphate, pH2.0) in 0.2 mL volume when average tumor size reaches approximately 300 mg. After a fixed time interval, the tumors are harvested and the phospho-ERK levels are measured by ELISA (Enzyme-linked immunosorbent assay). Treated groups are compared to the vehicle control group to calculate % inhibition.
In general terms: In an ELISA, binding on a coated surface is turned into a signal by an enzyme label.

Data set [3] relates to A375res cells. Description: Proliferation assay in vemurafenib-resistant A375res melanoma cells. Conditions: for IC50: Homo sapiens, 72 h.
Source text: (§2) A vemurafenib-resistant cell line is generated by chronic treatment of the human melanoma cell line A375 (ATCC) harboring the B-Raf V600E mutation with increasing concentrations PLX4720.
Data set [4] in a line: Body weight in A375 mouse xenograft efficacy model. It counts as in vivo, mice. Conditions: oral, twice a day at 15 or 30 mg/kg, 21 days. Here is the method: (§1) To further evaluate in vivo activity of compounds of Formula I, an A375 xenograft tumor model is utilized. Briefly, 10×10^6 cells in a 1:1 matrigel mix (0.2 mL total volume) are implanted by subcutaneous injection in the hind leg of nude female mice. A total of 8-10 mice in each group are used. Treatment is initiated with oral administration (gavage) of a test compound or vehicle (20% captisol, 25 mM phosphate, pH2.0) in 0.2 mL volume when tumor size reaches approximately 300-500 mg. Test compound is orally dosed twice or thrice a day for 21 days. Tumor growth and body weight are monitored over time to evaluate efficacy and signs of toxicity. Bidimensional measurements of tumors are performed twice a week and tumor volumes are calculated based on the following formula: (Tumor Volume)=[(L)×(W^2)×(π/6)] where L is mid-axis length and W is mid-axis width. Tumor volume data are transformed to a log scale to equalize variance across time and treatment groups. The log volume data are analyzed with a two-way repeated measures analysis of variance by time and treatment using the MIXED procedures in SAS software (version 8.2). The correlation model for the repeated measures is spatial power. Treated groups are compared to the control group at each time point. The MIXED procedure is also used separately for each treatment group to calculate adjusted means and standard errors at each time point. Both analyses account for the autocorrelation within each animal and the loss of data that occurs when animals with large tumors are removed from the study early. The adjusted means and standard errors are plotted for each treatment group versus time.

For data set [5], the system named is A375res cells.
Source text: as §2
In another data set the test system is A375 xenograft tumor. Description: A375 mouse xenograft efficacy model. In kind it is in vivo, mice. Conditions: oral, twice a day at 15 or 30 mg/kg, 21 days. Here is the method: as §1
A further data set concerns A375 cells. Kind of data set: A375 cell proliferation assay (72 hour). Conditions: Homo sapiens, A-375, parental A375 cells. It counts as cell-based.

Structures can show the parent of a compound that is named as a salt. Where two headings read alike, the source gives them in different places.

These results are taken from patent US9187474B2, “Raf inhibitor compounds” (Deciphera Pharmaceuticals, LLC, priority 2012, dated 2015).

Procedure for A375 cells: A375 cells (catalog #CRL-1619) are obtained from the American Type Culture Collection (ATCC, Manassas, Va.). Briefly, cells are grown in DMEM High Glucose supplemented with 10% characterized fetal bovine serum (Invitrogen, Carlsbad, Calif.) and 1% Penicillin/Streptomycin/L-Glutamine at 37 degrees Celsius, 5% CO2, and 95% humidity. Cells are allowed to expand until reaching 70-95% confluency at which point they are subcultured or harvested for assay use. A serial dilution of test compound is dispensed into a 384-well black clear bottom plate in triplicate. Six hundred twenty-five cells are added per well in 50 μL complete growth medium in the 384-well plate. Plates are incubated for 67 hours at 37 degrees Celsius, 5% CO2, and 95% humidity. […] Plates are read on a Synergy2 reader (Biotek, Winooski, Vt.) using an excitation of 540 nm and an emission of 600 nm. Data is analyzed using Prism software (Graphpad, San Diego, Calif.) to calculate IC50 values.

Take `CNc1cc2nc(C)c(-c3cc(NC(=O)NCCC(C)(C)OC)c(F)cc3F)cc2cn1` [Example 24, 1-(2,4-difluoro-5-(2-methyl-7 (methylamino)-1,6-naphthyridin-3-yl)phenyl)-3-(3-methoxy-3-methylbutyl)urea hydrochloride]: the IC50 was 2 to 96 nM in data set [1] and 9 to 504 nM with A375res cells [3] (read-out: absolute IC50 values). Besides, in data set [2], the inhibition in vivo at 20 mg/kg is 45%.

For `Cc1cc(F)c(NC(=O)NCCC(C)(C)F)cc1-c1cc2cnc(N)cc2nc1C` [Example 79, 1-(5-(7-amino-2-methyl-1,6-naphthyridin-3-yl)-2-fluoro-4-methylphenyl)-3-(3-fluoro-3-methylbutyl)urea], the IC50 in data set [1] lay within 2 to 96 nM; in the data set on A375res cells [3] (read-out: absolute IC50 values), 9 to 504 nM. For the same molecule, the “animal body weight loss” value in data set [4] was “minimal animal body weight loss”. In addition, the inhibition in vivo at 20 mg/kg in data set [2] came out at 87%. Further, the “IC50 shift A375 to A375res” value in the data set on A375res cells [5] was 0.5-4.9 fold. In the data set with A375 xenograft tumor, the tumor growth result is “tumor growth inhibition”.

For `CNc1cc2nc(C)c(-c3cc(NC(=O)NC[C@H](O)C(C)(C)C)c(F)cc3C)cc2cn1` [Example 57, (R)-1-(2-fluoro-4-methyl-5-(2-methyl-7-(methylamino)-1,6-naphthyridin-3-yl)phenyl)-3-(2-hydroxy-3,3-dimethylbutyl)urea], the IC50 in data set [1] fell in the range of 2 to 96 nM; in the data set with A375res cells [3] (read-out: absolute IC50 values), 9 to 504 nM. The inhibition in vivo at 20 mg/kg in data set [2] came to 96%. Besides, the “IC50 shift A375 to A375res” value in the data set with A375res cells [5] is 0.5-4.9 fold.

`Cc1nc2cc(NCCO)ncc2cc1-c1cc(NC(=O)NCCC(C)(C)C)c(F)cc1F` [Example 47, 1-(2,4-difluoro-5-(7-(2-hydroxyethylamino)-2-methyl-1,6-naphthyridin-3-yl)phenyl)-3-(3,3-dimethylbutyl)urea]: the IC50 in data set [1] lay within 2 to 96 nM; in the data set on A375res cells [3] (read-out: absolute IC50 values), 9 to 504 nM. Further, in data set [2], the inhibition in vivo at 20 mg/kg was 50%. Besides, the “IC50 shift A375 to A375res” value in the data set on A375res cells [5] is 0.5-4.9 fold.

As for `Cc1cc(F)c(NC(=O)NCCC(C)(C)C)cc1-c1cc2cnc(NCCO)cc2nc1C` [Example 64, 1-(3,3-dimethylbutyl)-3-(2-fluoro-5-(7-((2-hydroxyethyl)amino)-2-methyl-1,6-naphthyridin-3-yl)-4-methylphenyl)urea], in data set [1], the IC50 lay in the range of 2 to 96 nM. In data set [2], the inhibition in vivo at 20 mg/kg stood at 79%.

On to `CCCS(=O)(=O)Nc1ccc(F)c(C(=O)c2c[nH]c3ncc(Cl)cc23)c1F` [PLX4720, N-[3-(5-chloro-1H-pyrrolo[2,3-b]pyridine-3-carbonyl)-2,4-difluorophenyl]propane-1-sulfonamide, reference compound], for which the IC50 in the data set on A375 cells is 369 nM; in the data set on A375res cells [3] (read-out: IC50 proliferation), above 10000 nM. Further, the “IC50 shift A375 to A375res” value in the data set on A375res cells [3] (72 hour proliferation assay) is “more than 27 fold”.

As to `CNc1cc2nc(C)c(-c3cc(NC(=O)NCCC(C)(C)OC)c(F)cc3C)cc2cn1` [Example 92, 1-(2-fluoro-4-methyl-5-(2-methyl-7-(methylamino)-1,6-naphthyridin-3-yl)phenyl)-3-(3-methoxy-3-methylbutyl)urea hydrochloride], the IC50 in data set [1] lay in the range of 2 to 96 nM; in the data set on A375res cells [3] (read-out: absolute IC50 values) it was 9 to 504 nM. Moreover, in data set [2], the inhibition in vivo at 20 mg/kg amounted to 77%. The “IC50 shift A375 to A375res” value with A375res cells [5] is 0.5-4.9 fold.

Regarding `CNc1cc2nc(C)c(-c3cc(NC(=O)NC4CCC(F)(F)CC4)c(F)cc3C)cc2cn1` [Example 12, 1-(4,4-difluorocyclohexyl)-3-(2-fluoro-4-methyl-5-(2-methyl-7-(methylamino)-1,6-naphthyridin-3-yl)phenyl)urea hydrochloride], the values for the IC50 (in data set [1]; in the data set on A375res cells [3] (read-out: absolute IC50 values)) were 2 to 96 nM and 9 to 504 nM, respectively. For the same molecule, the inhibition in vivo at 20 mg/kg in data set [2] was 58%. Moreover, the “IC50 shift A375 to A375res” value in the data set on A375res cells [5] is 0.5-4.9 fold.

For the molecule `CCCS(=O)(=O)Nc1ccc(F)c(C(=O)c2c[nH]c3ncc(-c4ccc(Cl)cc4)cc23)c1F` [vemurafenib, reference compound], the “effect on pERK signal” value in data set [1] (at concentrations up to about 3 uM) was “stimulates the pERK signal”. Further, in the data set on A375res cells [5], the “IC50 shift A375 to A375res” value was “more than 57 fold”. Further, the values for the IC50 in the data set with A375 cells and with A375res cells [3] (read-out: IC50 proliferation) were 175 nM and above 10000 nM, respectively.

`CNc1cc2nc(C)c(-c3cc(NC(=O)NCCC(C)(C)C#N)c(F)cc3C)cc2cn1` [Example 9, 1-(3-cyano-3-methylbutyl)-3-(2-fluoro-4-methyl-5-(2-methyl-7-(methylamino)-1,6-naphthyridin-3-yl)phenyl)urea]: the IC50 in data set [1] was in the range of 2 to 96 nM; in the data set on A375res cells [3] (read-out: absolute IC50 values) it was 9 to 504 nM. Also, in data set [2], the inhibition in vivo at 20 mg/kg worked out at 78%. The “IC50 shift A375 to A375res” value in the data set with A375res cells [5] is 0.5-4.9 fold.

For `CNc1cc2nc(C)c(-c3cc(NC(=O)NCCC(C)(C)C(F)(F)F)c(F)cc3C)cc2cn1` [Example 89, 1-(2-fluoro-4-methyl-5-(2-methyl-7-(methylamino)-1,6-naphthyridin-3-yl)phenyl)-3-(4,4,4-trifluoro-3,3-dimethylbutyl)urea hydrochloride], the IC50 was in the range of 2 to 96 nM in data set [1] and 9 to 504 nM in the data set on A375res cells [3] (read-out: absolute IC50 values). Also, in data set [2], the inhibition in vivo at 20 mg/kg stood at 84%. The “IC50 shift A375 to A375res” value in the data set on A375res cells [5] is reported as 0.5-4.9 fold.

In the case of `CNc1cc2nc(C)c(-c3cc(NC(=O)N[C@H]4C[C@](C)(F)C4)c(F)cc3C)cc2cn1` [Example 77, 1-(3-fluoro-cis(3-methylcyclobutyl))-3-(2-fluoro-4-methyl-5-(2-methyl-7-(methylamino)-1,6-naphthyridin-3-yl)phenyl)urea], the IC50 is 2 to 96 nM in data set [1] and 9 to 504 nM in the data set on A375res cells [3] (read-out: absolute IC50 values). For the same molecule, the inhibition in vivo at 20 mg/kg in data set [2] worked out at 96%. Besides, in the data set with A375res cells [5], the “IC50 shift A375 to A375res” value is 0.5-4.9 fold.
